# Measured values from PubChem BioAssay AID1963444 (Molecular Pharmacology Branch, DTP, NCI, 2024).
# Several values for one entry are separate records, joined by “and”; a condition that tells them apart may be missing. Equal values may be shown once.
# System: HSSY-II complex spheroid growth, percent test/control
# Experiment: Anticancer human tumor HSSY-II cell line growth inhibition [Asc];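 further: spheroids exposed to drug for 7 days before reading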
# Conditions: for viability, T/C: stronger effect = lower value
# Summary of the method: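 Complex spheroids combining tumor cells with HUVEC endothelial cells and human MSCs, at 37 degrees C, 5% CO2; agents tested alone or combined, half-log dilutions from at or near clinical Cmax, or 10 microM if Cmax unknown.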
# [1] = curve of first compound, second compound 0.1 µM
# [2] = curve of first compound, second compound 0.316 µM
# [3] = curve of first compound, second compound 1 µM
# [4] = second compound 0.1 µM, first compound 0.0316 µM
# [5] = second compound 0.1 µM, first compound 0.1 µM
# [6] = second compound 0.1 µM, first compound 0.316 µM
# [7] = second compound 0.1 µM, first compound 1 µM
# [8] = second compound 0.316 µM, first compound 0.0316 µM
# [9] = second compound 0.316 µM, first compound 0.1 µM
# [10] = second compound 0.316 µM, first compound 0.316 µM
# [11] = second compound 0.316 µM, first compound 1 µM
# [12] = second compound 1 µM, first compound 0.0316 µM
# [13] = second compound 1 µM, first compound 0.1 µM
# [14] = second compound 1 µM, first compound 0.316 µM
# [15] = second compound 1 µM, first compound 1 µM
compound,measurement,setting,value
CCN1CCN(Cc2ccc(Nc3ncc(F)c(-c4cc(F)c5nc(C)n(C(C)C)c5c4)n3)nc2)CC1 + CNC(C)C(=O)NC1CN(S(=O)(=O)c2cccc(S(=O)(=O)N3CCC4CCC(C(=O)NC(c5ccccc5)c5ccccc5)N4C(=O)C(NC(=O)C(C)NC)C3)c2)CCC2CCC(C(=O)NC(c3ccccc3)c3ccccc3)N2C1=O,IC50,"curve of first compound, second compound 0.01 µM",120 nM
same,IC50,"curve of first compound, second compound 0.0316 µM",150 nM
same,IC50,[1],111 nM
same,IC50,[2],87.5 nM
same,IC50,[3],96 nM
same,"viability, T/C","second compound 0.01 µM, first compound 0.00316 µM",95.3%
same,"viability, T/C","second compound 0.01 µM, first compound 0.01 µM",92.5%
same,"viability, T/C","second compound 0.01 µM, first compound 0.0316 µM",60.6%
same,"viability, T/C","second compound 0.01 µM, first compound 0.1 µM",54.2%
same,"viability, T/C","second compound 0.01 µM, first compound 0.316 µM",39.9%
same,"viability, T/C","second compound 0.01 µM, first compound 1 µM",23.2%
same,"viability, T/C","second compound 0.0316 µM, first compound 0.00316 µM",78.1%
same,"viability, T/C","second compound 0.0316 µM, first compound 0.01 µM",83.9%
same,"viability, T/C","second compound 0.0316 µM, first compound 0.0316 µM",66.7%
same,"viability, T/C","second compound 0.0316 µM, first compound 0.1 µM",53.2%
same,"viability, T/C","second compound 0.0316 µM, first compound 0.316 µM",42.3%
same,"viability, T/C","second compound 0.0316 µM, first compound 1 µM",23.4%
same,"viability, T/C","second compound 0.1 µM, first compound 0.00316 µM",68.5%
same,"viability, T/C","second compound 0.1 µM, first compound 0.01 µM",78.3%
same,"viability, T/C",[4],59.1%
same,"viability, T/C",[5],51.5%
same,"viability, T/C",[6],37.4%
same,"viability, T/C",[7],24.1%
same,"viability, T/C","second compound 0.316 µM, first compound 0.00316 µM",86.5%
same,"viability, T/C","second compound 0.316 µM, first compound 0.01 µM",89%
same,"viability, T/C",[8],68.9%
same,"viability, T/C",[9],45.2%
same,"viability, T/C",[10],37.6%
same,"viability, T/C",[11],23.9%
same,"viability, T/C","second compound 1 µM, first compound 0.00316 µM",88%
same,"viability, T/C","second compound 1 µM, first compound 0.01 µM",76.8%
same,"viability, T/C",[12],66.9%
same,"viability, T/C",[13],46.7%
same,"viability, T/C",[14],35.4%
same,"viability, T/C",[15],18.8%
CNC(C)C(=O)NC1CN(S(=O)(=O)c2cccc(S(=O)(=O)N3CCC4CCC(C(=O)NC(c5ccccc5)c5ccccc5)N4C(=O)C(NC(=O)C(C)NC)C3)c2)CCC2CCC(C(=O)NC(c3ccccc3)c3ccccc3)N2C1=O (centres undefined) + CCN1C(C(=O)NC23CCC(C(=O)O)(CC2)CC3)C(c2cccc(Cl)c2F)C2(C(=O)Nc3cc(Cl)ccc32)C12CCCCC2,IC50,"curve of first compound, second compound 0.03 µM",> 1000 nM
same,IC50,"curve of first compound, second compound 0.0949 µM",3.28 nM
same,IC50,"curve of first compound, second compound 0.3 µM",< 3.16 nM
same,IC50,"curve of first compound, second compound 0.949 µM",< 3.16 nM
same,IC50,"curve of first compound, second compound 3 µM",< 3.16 nM
same,"viability, T/C","second compound 0.03 µM, first compound 0.00316 µM",76.3%
same,"viability, T/C","second compound 0.03 µM, first compound 0.01 µM",81.6%
same,"viability, T/C","second compound 0.03 µM, first compound 0.0316 µM",65.6%
same,"viability, T/C","second compound 0.03 µM, first compound 0.1 µM",69.1%
same,"viability, T/C","second compound 0.03 µM, first compound 0.316 µM",66.8%
same,"viability, T/C","second compound 0.03 µM, first compound 1 µM",63.1%
same,"viability, T/C","second compound 0.0949 µM, first compound 0.00316 µM",49.2%
same,"viability, T/C","second compound 0.0949 µM, first compound 0.01 µM",48.4%
same,"viability, T/C","second compound 0.0949 µM, first compound 0.0316 µM",36.8%
same,"viability, T/C","second compound 0.0949 µM, first compound 0.1 µM",39.5%
same,"viability, T/C","second compound 0.0949 µM, first compound 0.316 µM",39.1%
same,"viability, T/C","second compound 0.0949 µM, first compound 1 µM",37.5%
same,"viability, T/C","second compound 0.3 µM, first compound 0.00316 µM",13.5%
same,"viability, T/C","second compound 0.3 µM, first compound 0.01 µM",13.5%
same,"viability, T/C","second compound 0.3 µM, first compound 0.0316 µM",13.3%
same,"viability, T/C","second compound 0.3 µM, first compound 0.1 µM",11%
same,"viability, T/C","second compound 0.3 µM, first compound 0.316 µM",14.3%
same,"viability, T/C","second compound 0.3 µM, first compound 1 µM",11.2%
same,"viability, T/C","second compound 0.949 µM, first compound 0.00316 µM",2.72%
same,"viability, T/C","second compound 0.949 µM, first compound 0.01 µM",1.74%
same,"viability, T/C","second compound 0.949 µM, first compound 0.0316 µM",1.39%
same,"viability, T/C","second compound 0.949 µM, first compound 0.1 µM",1.14%
same,"viability, T/C","second compound 0.949 µM, first compound 0.316 µM",0.75%
same,"viability, T/C","second compound 0.949 µM, first compound 1 µM",1.15%
same,"viability, T/C","second compound 3 µM, first compound 0.00316 µM",0.64%
same,"viability, T/C","second compound 3 µM, first compound 0.01 µM",0.51%
same,"viability, T/C","second compound 3 µM, first compound 0.0316 µM",0.48%
same,"viability, T/C","second compound 3 µM, first compound 0.1 µM",0.47%
same,"viability, T/C","second compound 3 µM, first compound 0.316 µM",0.62%
same,"viability, T/C","second compound 3 µM, first compound 1 µM",0.46%
COc1c(OCCCN2CCOCC2)ccc2c3n(c(=NC(=O)c4cnc(N)nc4)nc12)CCN3,"viability, T/C",compound 0.00316 µM,91.6% and 98.3% and 96.8%
same,"viability, T/C",compound 0.01 µM,79.1% and 86.2% and 79.5%
same,"viability, T/C",compound 0.0316 µM,49.7% and 56.5% and 61.6%
same,"viability, T/C",compound 0.1 µM,32.7% and 39.2% and 46.4%
same,"viability, T/C",compound 0.316 µM,23.3% and 23.6% and 26.9%
same,"viability, T/C",compound 1 µM,13.1% and 13.5% and 11.5%
same,IC50,curve of compound,36.8 nM and 53.1 nM and 71.8 nM
C=CC(=O)N1CCN(c2nc(=O)n(-c3c(C)ccnc3C(C)C)c3nc(-c4c(O)cccc4F)c(F)cc23)C(C)C1 (centres undefined),"viability, T/C",compound 0.0316 µM,107% and 90.9% and 100%
same,"viability, T/C",compound 0.1 µM,108% and 97.8% and 106%
same,"viability, T/C",compound 0.316 µM,106% and 100% and 99.8%
same,"viability, T/C",compound 1 µM,106% and 105% and 102%
same,"viability, T/C",compound 3.16 µM,95.8% and 106% and 103%
same,"viability, T/C",compound 10 µM,66.7% and 56.7% and 70.2%
same,IC50,curve of compound,> 10000 nM
C#Cc1c(F)ccc2cc(O)cc(-c3ncc4c(N5CC6CCC(C5)N6)nc(OCC56CCCN5CC(F)C6)nc4c3F)c12 (centres undefined) + Cc1c(S(C)(=O)=O)c(-c2cc(F)cc(N3CCN(c4ccc(NS(=O)(=O)c5ccc(NC(CCN6CCC(C(=O)OCCCP(=O)(O)O)CC6)CSc6ccccc6)c(S(=O)(=O)C(F)(F)F)c5)cc4)CC3)c2)c(-c2ccc(Cl)cc2)n1C(C)C,IC50,[1],8630 nM
same,IC50,[2],6030 nM
same,IC50,[3],5880 nM
same,IC50,"curve of first compound, second compound 3.16 µM",5430 nM
same,IC50,"curve of first compound, second compound 10 µM",5950 nM
same,"viability, T/C",[4],103%
same,"viability, T/C",[5],99.5%
same,"viability, T/C",[6],99.6%
same,"viability, T/C",[7],102%
same,"viability, T/C","second compound 0.1 µM, first compound 3.16 µM",87.8%
same,"viability, T/C","second compound 0.1 µM, first compound 10 µM",44%
same,"viability, T/C",[8],108%
same,"viability, T/C",[9],117%
same,"viability, T/C",[10],110%
same,"viability, T/C",[11],105%
same,"viability, T/C","second compound 0.316 µM, first compound 3.16 µM",82%
same,"viability, T/C","second compound 0.316 µM, first compound 10 µM",25%
same,"viability, T/C",[12],102%
same,"viability, T/C",[13],105%
same,"viability, T/C",[14],109%
same,"viability, T/C",[15],105%
same,"viability, T/C","second compound 1 µM, first compound 3.16 µM",96.8%
same,"viability, T/C","second compound 1 µM, first compound 10 µM",9.87%
same,"viability, T/C","second compound 3.16 µM, first compound 0.0316 µM",108%
same,"viability, T/C","second compound 3.16 µM, first compound 0.1 µM",115%
same,"viability, T/C","second compound 3.16 µM, first compound 0.316 µM",94.3%
same,"viability, T/C","second compound 3.16 µM, first compound 1 µM",101%
same,"viability, T/C","second compound 3.16 µM, first compound 3.16 µM",83.7%
same,"viability, T/C","second compound 3.16 µM, first compound 10 µM",13.2%
same,"viability, T/C","second compound 10 µM, first compound 0.0316 µM",105%
same,"viability, T/C","second compound 10 µM, first compound 0.1 µM",95.2%
same,"viability, T/C","second compound 10 µM, first compound 0.316 µM",92.6%
same,"viability, T/C","second compound 10 µM, first compound 1 µM",97.8%
same,"viability, T/C","second compound 10 µM, first compound 3.16 µM",74.9%
same,"viability, T/C","second compound 10 µM, first compound 10 µM",29.4%
CCN1C(C(=O)NC23CCC(C(=O)O)(CC2)CC3)C(c2cccc(Cl)c2F)C2(C(=O)Nc3cc(Cl)ccc32)C12CCCCC2 (centres undefined),"viability, T/C",compound 0.00949 µM,99.7% and 101%
same,"viability, T/C",compound 0.03 µM,89.3% [middle of 15 runs]
same,"viability, T/C",compound 0.0949 µM,62.1% [middle of 15 runs]
same,"viability, T/C",compound 0.3 µM,27% [middle of 15 runs]
same,"viability, T/C",compound 0.949 µM,8.58% [middle of 15 runs]
same,"viability, T/C",compound 3 µM,2.55% [middle of 15 runs]
same,IC50,"compound alone, run of 10/11/2022",143 nM [middle of 12 runs]
same,IC50,curve of compound,133 nM and 135 nM
CCN1CCN(Cc2ccc(Nc3ncc(F)c(-c4cc(F)c5nc(C)n(C(C)C)c5c4)n3)nc2)CC1,"viability, T/C",compound 0.00316 µM,102% and 74.4% and 98.4%
same,"viability, T/C",compound 0.01 µM,94.4% and 70.5% and 78.7%
same,"viability, T/C",compound 0.0316 µM,65.6% and 73.6% and 78.9%
same,"viability, T/C",compound 0.1 µM,59.6% and 44.7% and 74.7%
same,"viability, T/C",compound 0.316 µM,49.6% and 35.2% and 46.9%
same,"viability, T/C",compound 1 µM,27.2% and 30.8% and 28.5%
same,IC50,curve of compound,201 nM and 80.5 nM and 328 nM
